# Results reported in patent publication EP0267050B1, “Aerosols containg liposomes and method for their preparation” (priority 1986, dated 1988).
# Tests used:
# [1] = Animal tolerance: effects of oral doses in mice; assay type: in vivo
# [2] = Animal tolerance: cardiovascular effects in cats; assay type: in vivo
# Procedure: (§1) Effects on cats and dogs. […] Plasma concentrations of enviroxime were 3.0, 8.9 and 19 µg/mL following these I.V. doses. Bioassay (antiviral) and biochemical assay of blood yielded similar results.
# [3] = system: prostaglandin E2; experiment: Effects in vitro on muscle: receptor activation; design: species or system rats; details: rat muscle in vitro, 10⁻⁵ to 10⁻⁸M
# Procedure: (§2) Effects in vitro on muscle. Muscle from many organs of rats was tested with 10⁻⁵ to 10⁻⁸M enviroxime.
# [4] = system: histamine; experiment: Effects in vitro on muscle: receptor activation; design: species or system rats; details: rat muscle in vitro, 10⁻⁵ to 10⁻⁸M
# Procedure: as §2
# [5] = system: adrenergic; experiment: Effects in vitro on muscle: receptor activation; design: species or system rats; details: rat muscle in vitro, 10⁻⁵ to 10⁻⁸M
# Procedure: as §2
# [6] = Animal tolerance: effects on electrolytes and urine output; assay type: in vivo; details: rats
# Source text: Effects on electrolytes. […] The oliguria was associated with increases in potassium in serum but not sodium.
# [7] = system: polioviruses; details: cited from earlier work
# [8] = Plasma concentration after I.V. doses; assay type: in vivo, dogs
# Procedure: as §1
# [9] = system: cells in culture; details: cited from earlier work
# [10] = system: echoviruses; details: cited from earlier work
# [11] = system: coxsackieviruses; details: cited from earlier work
# [12] = system: primary antibody response; assay type: in vivo; details: mice
# [13] = system: Muscle from many organs of rats; experiment: Effects in vitro on muscle: antagonism of dose response curves; details: rat muscle in vitro, 10⁻⁵ to 10⁻⁸M; similar to that of potassium chloride
# Procedure: as §2
# [14] = Animal tolerance: diastolic blood pressure in dogs; assay type: in vivo; details: following 1, 3, and 10 mg/kg I.V. doses
# Procedure: as §1
# [15] = cited from earlier work
# [16] = system: rhinoviruses; details: all rhinoviruses tested; generally range; cited from earlier work
# [17] = associated with the oliguria at 25 mg/kg and above
compound,measurement,setting,value
CC(C)S(=O)(=O)n1c(N)nc2ccc(/C(=N/O)c3ccccc3)cc21 [enviroxime],effects in mice,[1]; 50 mg/kg orally,no detectable effects
same,effects in mice,"[1]; higher doses, 100-400 mg/kg","increasing leg weakness, decreased motor activity and gait disturbances"
same,onset of the effect of high doses,"[1]; mice, high doses",within a few minutes
same,tolerance of oral doses,"[1]; oral doses up to 100 mg/kg, a number of other tests",well tolerated
same,cardiovascular effects,[2],no significant cardiovascular effects
same,activation of prostaglandin E2 receptors,[3],did not activate
same,activation of histamine receptors,[4],did not activate
same,activation of adrenergic receptors,[5],did not activate
same,potassium in serum,[6]; [17],increases
same,sodium in serum,[6]; [17],not
same,oliguria,[6]; dose of 25 mg/kg and above,significant oliguria
same,activity against polioviruses,[7],active
same,Plasma concentrations,[8]; following 1 mg/kg I.V. dose,3000 ng/mL
same,Plasma concentrations,[8]; following 3 mg/kg I.V. dose,8900 ng/mL
same,Plasma concentrations,[8]; following 10 mg/kg I.V. dose,19000 ng/mL
same,Maximum tolerated concentrations for cells in culture,[9],4 to 100 µg/mL
same,activity against echoviruses,[10],active
same,activity against coxsackieviruses,[11],active
same,immune suppressive activity on primary antibody response,[12],no immune suppressive activity
same,antagonism of dose response curves,[13],some non-competitive antagonism
same,diastolic blood pressure,[14],some stepwise depression
same,soluble in water,[15],1 to 2 µg/mL
same,inhibitory concentrations,[16],0.3 to 0.9 µg/mL
